Test results as given in US10251886B1, “4-anilinoquinazoline derivative and albumin conjugates thereof” (National Chiao Tung University, priority 2018, dated 2019).
Read-outs that look alike come from different tables or passages of the source.

Columns and labels:
A549 cell = test: Cell viability assay (MTT assay), A549 cells; type: cell-based
Experimental: (§1) A549 cell (ATCC number: CCL-185) was a non-small cell lung carcinoma cell line, expressing wild type EGFR and K-RAS mutation (G12S). H1975 cell (ATCC number: CRL-5908) was a non-small cell lung carcinoma cell line expressing EGFR L858R/T790M mutation. A549 and H1975 cells were cultured in a complete medium at 37° C., 5% CO2 within a humidified incubator (310/Thermo, Forma Scientific, Inc., Marietta, Ohio). The complete medium was RPMI-1640 medium (Gibco, Life Technologies, Grand Island, N.Y., USA) supplemented with 10% fetal bovine serum (FBS), penicillin (100 units/mL), streptomycin (100 μg/mL), and sodium bicarbonate.
(§2) The cells were plated in 96-well plates at a density of 1×10^4 cells/well for 16-20 hours. Thereafter, the cells in each well were treated by 0.1 mL of a treating agent for 24 hours. The treating agents for the wells were different in treating chemicals and their concentrations. The treating chemicals were Erlotinib, Erlotinib analogues (CE 1 to 6 and E1), and BSA-conjugated Erlotinib Analogue (E2). Next, the cells were washed with phosphate-buffered saline (PBS) and were further cultured with fresh complete medium for 2 days. Subsequently, the cells were incubated with 0.5 mg/ml of 3-(4,5-dimethylthiazol-2-yl)-2,5-diphenyltetrazolium bromide (MTT) in fresh complete medium for 4 hours, followed by removal of the medium and addition of dimethyl sulfoxide (DMSO, 0.1 mL) to thereby allow […]. The absorbance of the reduced MTT (formazan) was read on a microplate reader (VERSAmax, Molecular Devices Inc., CA) at 565 nm. […] Tables 1 and 2, and FIGS. 1 and 2 show cell viability values for A549 cell using different treating chemicals in different concentrations. Table 3 and FIG. 3 show cell viability values for H1975 cell using two treating chemicals in different concentrations.

H1975 cell = test: Cell viability assay (MTT assay), H1975 cells; type: cell-based; conditions: treated 24 hours, cultured 2 more days, Table 3
Experimental: as §1, §2

[1] = Homo sapiens, A549, 24 h, read-out: Cell viability (%)

Structure (SMILES) | viability at 5 µM (A549 cell; [1]) [%] | viability at 10 µM (A549 cell; [1]) [%] | viability at 20 µM (A549 cell; [1]) [%] | viability at 40 µM (A549 cell; [1]) [%] | viability at 60 µM (A549 cell; [1]) [%] | further results
C#Cc1cccc(Nc2ncnc3cc(OC)c(OCc4ccccc4)cc23)c1 [CE1, 6-(benzyloxy)-N-(3-ethynylphenyl)-7-methoxyquinazolin-4-amine] | 79.9 | 74.7 | 73 | 71.6 | 63.4 | –
C#Cc1cccc(Nc2ncnc3cc(OC)c(OCCOC)cc23)c1 [CE2, N-(3-ethynylphenyl)-7-methoxy-6-(2-methoxyethoxy) quinazolin-4-amine] | 69.5 | 60.9 | 62.4 | 64.5 | 61.6 | –
C#Cc1cccc(Nc2ncnc3cc(OCCOC(C)=O)c(OCCOC)cc23)c1 [CE3, 2-{[4-((3-ethynylphenyl)amino)-6-(2-methoxyethoxy)quinazolin-7-yl]oxy}ethyl acetate] | 79.3 | 77.5 | 70.1 | 63 | 59.5 | –
C#Cc1cccc(Nc2ncnc3cc(OCCO)c(OCCOC)cc23)c1 [CE4, 2-{[4-((3-ethynylphenyl)amino)-6-(2-methoxyethoxy)quinazolin-7-yl]oxy}ethanol] | 74.5 | 68.4 | 63.1 | 60.7 | 57.8 | –
C#Cc1cccc(Nc2ncnc3cc(OCCOS(C)(=O)=O)c(OCCOC)cc23)c1 [CE5, 2-{[4-((3-ethynylphenyl)amino)-6-(2-methoxyethoxy)quinazolin-7-yl]oxy}ethyl methanesulfonate] | 73.7 | 67.2 | 56.1 | 57.9 | 60.7 | –
C#Cc1cccc(Nc2ncnc3cc(OCCN)c(OCCOC)cc23)c1 [CE6, 7-(2-aminoethoxy)-N-(3-ethynylphenyl)-6-(2-methoxyethoxy) quinazolin-4-amine] | 75.4 | 74.8 | 74.1 | 62.7 | 58.6 | –
C#Cc1cccc(Nc2ncnc3cc(OCCOC)c(OCCOC)cc23)c1 [Erlotinib, reference compound] | – | – | – | – | – | Cell viability (%) (H1975 cell; treating chemical 0.5 μM): 98.4% ± 2.7; Cell viability (%) (H1975 cell; treating chemical 1 μM): 93.1% ± 2.5; Cell viability (%) (H1975 cell; treating chemical 5 μM): 75.8% ± 4.5; viability at 0.5 µM (A549 cell; Homo sapiens, A549, 24 h, read-out: Cell viability (%), A549 cell, treating chemical 0.5 μM, treated 24 hours, cultured 2 more days, Table 2): 89.3%; viability at 1 µM (A549 cell; Homo sapiens, A549, 24 h, read-out: Cell viability (%), A549 cell, treating chemical 1 μM, treated 24 hours, cultured 2 more days, Table 2): 89.3%; viability at 5 µM (A549 cell; Homo sapiens, A549, 24 h, read-out: Cell viability (%), A549 cell, treating chemical 5 μM, treated 24 hours, cultured 2 more days, Table 1): 73.8%; viability at 5 µM (A549 cell; Homo sapiens, A549, 24 h, read-out: Cell viability (%), A549 cell, treating chemical 5 μM, treated 24 hours, cultured 2 more days, Table 2): 84.2%; viability at 10 µM (A549 cell; Homo sapiens, A549, 24 h, read-out: Cell viability (%), A549 cell, treating chemical 10 μM, treated 24 hours, cultured 2 more days, Table 1): 71.7%; viability at 20 µM (A549 cell; Homo sapiens, A549, 24 h, read-out: Cell viability (%), A549 cell, treating chemical 20 μM, treated 24 hours, cultured 2 more days, Table 1): 65.9%; viability at 40 µM (A549 cell; Homo sapiens, A549, 24 h, read-out: Cell viability (%), A549 cell, treating chemical 40 μM, treated 24 hours, cultured 2 more days, Table 1): 61.2%; viability at 60 µM (A549 cell; Homo sapiens, A549, 24 h, read-out: Cell viability (%), A549 cell, treating chemical 60 μM, treated 24 hours, cultured 2 more days, Table 1): 58.5%
C#Cc1cccc(Nc2ncnc3cc(OCCI)c(OCCOC)cc23)c1 [Example E1, N-(3-ethynylphenyl)-7-(2-iodoethoxy)-6-(2-methoxyethoxy)quinazolin-4-amine] | 32.8 | 30.3 | 26.3 | 28 | 24.3 | Cell viability in comparison with the commercial available drug (Erlotinib) (A549 cell; A549 cells, Tables 1 and 2, FIGS. 1 and 2): significantly lower cell viability
